Results published in PubChem BioAssay (NCI).
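Each compound was tested at five concentrations against cells in 96-well plates for 48 hours. TGI: total growth inhibition.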

What was measured:
Assay in all cases: growth of human tumour cells (NCI), 48 h
NCI-H23 lung = test system: NCI-H23 lung
ACHN renal = test system: ACHN renal
EKVX NSCLC = test system: EKVX NSCLC
SNB-75 CNS = test system: SNB-75 CNS
SF-539 CNS = test system: SF-539 CNS
MDA-N = test system: MDA-N
MDA-MB-435 = test system: MDA-MB-435
NCI-H226 lung = test system: NCI-H226 lung
A549 NSCLC = test system: A549 NSCLC
NCI-H522 lung = test system: NCI-H522 lung
KM12 colon = test system: KM12 colon
SR leukemia = test system: SR leukemia
TK-10 renal = test system: TK-10 renal
SK-OV-3 ovarian = test system: SK-OV-3 ovarian
NCI-H460 lung = test system: NCI-H460 lung
SF-268 CNS = test system: SF-268 CNS
OVCAR-8 ovarian = test system: OVCAR-8 ovarian
BT-549 breast = test system: BT-549 breast
SK-MEL-2 melanoma = test system: SK-MEL-2 melanoma
786-0 renal = test system: 786-0 renal
U251 CNS = test system: U251 CNS
NCI/ADR-RES ovarian = test system: NCI/ADR-RES ovarian
RPMI-8226 leukemia = test system: RPMI-8226 leukemia
MDA-MB-231 breast = test system: MDA-MB-231 breast
MCF7 breast = test system: MCF7 breast
MALME-3M melanoma = test system: MALME-3M melanoma
OVCAR-5 ovarian = test system: OVCAR-5 ovarian
HCT-15 colon = test system: HCT-15 colon
T-47D breast = test system: T-47D breast
HT29 colon = test system: HT29 colon
PC-3 prostate = test system: PC-3 prostate
OVCAR-4 ovarian = test system: OVCAR-4 ovarian
M14 melanoma = test system: M14 melanoma
SW-620 colon = test system: SW-620 colon
MOLT-4 leukemia = test system: MOLT-4 leukemia
CAKI-1 renal = test system: CAKI-1 renal
UACC-257 melanoma = test system: UACC-257 melanoma
OVCAR-3 ovarian = test system: OVCAR-3 ovarian
LOX IMVI melanoma = test system: LOX IMVI melanoma
CCRF-CEM leukemia = test system: CCRF-CEM leukemia
HS 578T breast = test system: HS 578T breast
HOP-62 NSCLC = test system: HOP-62 NSCLC
SK-MEL-28 melanoma = test system: SK-MEL-28 melanoma
UO-31 renal = test system: UO-31 renal
HCT-116 colon = test system: HCT-116 colon
HOP-92 NSCLC = test system: HOP-92 NSCLC
SF-295 CNS = test system: SF-295 CNS
SNB-19 CNS = test system: SNB-19 CNS
SN12C renal = test system: SN12C renal
HL-60(TB) leukemia = test system: HL-60(TB) leukemia
COLO 205 colon = test system: COLO 205 colon
SK-MEL-5 melanoma = test system: SK-MEL-5 melanoma
DU-145 prostate = test system: DU-145 prostate
HCC-2998 colon = test system: HCC-2998 colon
UACC-62 melanoma = test system: UACC-62 melanoma
IGROV1 ovarian = test system: IGROV1 ovarian
A498 renal = test system: A498 renal

CCOc1cc(C=Nc2ccc(Oc3ccc(Cl)cc3)c(Cl)c2)ccc1O
TGI (NCI-H23 lung): 45.6 µM
TGI (ACHN renal): > 100 µM
TGI (EKVX NSCLC): 41.3 µM
TGI (SNB-75 CNS): 45.7 µM
TGI (SF-539 CNS): 54.7 µM
TGI (MDA-N): 61.7 µM
TGI (MDA-MB-435): > 100 µM
TGI (NCI-H226 lung): 90.2 µM
TGI (A549 NSCLC): > 100 µM
TGI (NCI-H522 lung): 31.9 µM
TGI (KM12 colon): 39 µM
TGI (SR leukemia): 57 µM
TGI (TK-10 renal): > 100 µM
TGI (SK-OV-3 ovarian): 58.3 µM
TGI (NCI-H460 lung): 43.2 µM
TGI (SF-268 CNS): 32 µM
TGI (OVCAR-8 ovarian): 65.4 µM
TGI (BT-549 breast): 52 µM
TGI (SK-MEL-2 melanoma): 56.4 µM
TGI (786-0 renal): 34 µM
TGI (U251 CNS): 44.4 µM
TGI (NCI/ADR-RES ovarian): 52.9 µM
TGI (RPMI-8226 leukemia): 82.8 µM
TGI (MDA-MB-231 breast): 42.1 µM
TGI (MCF7 breast): > 100 µM
TGI (MALME-3M melanoma): 52.6 µM
TGI (OVCAR-5 ovarian): 79.7 µM
TGI (HCT-15 colon): 47.3 µM
TGI (T-47D breast): > 100 µM
TGI (HT29 colon): 46.6 µM
TGI (PC-3 prostate): 88.7 µM
TGI (OVCAR-4 ovarian): 80.4 µM
TGI (M14 melanoma): 77.6 µM
TGI (SW-620 colon): > 100 µM
TGI (MOLT-4 leukemia): 67.3 µM
TGI (CAKI-1 renal): 59.4 µM
TGI (UACC-257 melanoma): 80.8 µM
TGI (OVCAR-3 ovarian): 85.7 µM
TGI (LOX IMVI melanoma): 39.9 µM
TGI (CCRF-CEM leukemia): 50.8 µM
TGI (HS 578T breast): 45.4 µM
TGI (HOP-62 NSCLC): 45.6 µM
TGI (SK-MEL-28 melanoma): 63.1 µM
TGI (UO-31 renal): 30.3 µM
TGI (HCT-116 colon): 37.8 µM
TGI (HOP-92 NSCLC): 39.6 µM
TGI (SF-295 CNS): 38.8 µM
TGI (SNB-19 CNS): 62.1 µM
TGI (SN12C renal): 38.8 µM
TGI (HL-60(TB) leukemia): 57.4 µM
TGI (COLO 205 colon): 44.6 µM
TGI (SK-MEL-5 melanoma): 52.9 µM
TGI (DU-145 prostate): > 100 µM
TGI (HCC-2998 colon): 43.4 µM
TGI (UACC-62 melanoma): 50.9 µM
TGI (IGROV1 ovarian): 60.6 µM
TGI (A498 renal): 36.6 µM
